According to patent publication US6753337B2, “Alkynyl containing hydroxamic acid compounds as matrix metalloproteinase/tace inhibitors” (Wyeth Holdings Corporation, priority 1999, dated 2004):
Read-outs that look alike come from different tables or passages of the source.

Legend:
Format in all cases: biochemical
MMP-9 = MMP-9 (Homo sapiens, UniProt P14780); experiment: MMP-9 inhibition (thiopeptide or fluorescent peptide substrate); settings: read-out: MMP9 IC50
Description: (§1) These standard pharmacological test procedures are based on the cleavage of a thiopeptide substrates such as Ac-Pro-Leu-Gly(2-mercapto-4-methyl-pentanoyl)-Leu-Gly-OEt by the matrix metalloproteinases MMP-1, MMP-13 (collagenases) or MMP-9 (gelatinase), which results in the release of a substrate product that reacts colorimetrically with DTNB (5,5′-dithiobis(2-nitro-benzoic acid)). The enzyme activity is measured by the rate of the color increase. The thiopeptide substrate is made up fresh as a 20 mM stock in 100% DMSO and the DTNB is dissolved in 100% DMSO as a 100 mM stock and stored in the dark at room temperature. Both the substrate and DTNB are diluted together to 1 mM with substrate buffer (50 mM HEPES pH 7.5, 5 mM CaCl2) before use. The stock of enzyme is diluted with buffer (50 mM HEPES, pH 7.5, 5 mM CaCl2, 0.02% Brij) to the desired final concentration. The buffer, enzyme, vehicle or inhibitor, and DTNB/substrate are added in this order to a 96 well plate (total reaction volume of 200 μl) and the increase in color is monitored spectrophotometrically for 5 minutes at 405 nm on a plate reader and the increase in color over time is plotted as a linear line.
(§2) Alternatively, a fluorescent peptide substrate is used. In this test procedure, the peptide substrate contains a fluorescent group and a quenching group. Upon cleavage of the substrate by an MMP, the fluorescence that is generated is quantitated on the fluorescence plate reader. The assay is run in HCBC assay buffer (50 mM HEPES, pH 7.0, 5 mM Ca^+2, 0.02% Brij, 0.5% Cysteine), with human recombinant MMP-1, MMP-9, or MMP-13. The substrate is dissolved in methanol and stored frozen in 1 mM aliquots. For the assay, substrate and enzymes are diluted in HCBC buffer to the desired concentrations. Compounds are added to the 96 well plate containing enzyme and the reaction is started by the addition of substrate. The reaction is read (excitation 340 nm, emission 444 nm) for 10 min. and the increase in fluorescence over time is plotted as a linear line.
(§3) For either the thiopeptide or fluorescent peptide test procedures, the slope of the line is calculated and represents the reaction rate. The linearity of the reaction rate is confirmed (r^2>0.85). The mean (x±sem) of the control rate is calculated and compared for statistical significance (p<0.05) with drug-treated rates using Dunnett's multiple comparison test. Dose-response relationships can be generated using multiple doses of drug and IC50 values with 95% CI are estimated using linear regression.

MMP-1 = target: T1, MMP-1 (Homo sapiens, UniProt P03956); experiment: MMP-1 inhibition (thiopeptide or fluorescent peptide substrate); settings: read-out: MMP1 IC50
T1 sequence (P03956 100-469): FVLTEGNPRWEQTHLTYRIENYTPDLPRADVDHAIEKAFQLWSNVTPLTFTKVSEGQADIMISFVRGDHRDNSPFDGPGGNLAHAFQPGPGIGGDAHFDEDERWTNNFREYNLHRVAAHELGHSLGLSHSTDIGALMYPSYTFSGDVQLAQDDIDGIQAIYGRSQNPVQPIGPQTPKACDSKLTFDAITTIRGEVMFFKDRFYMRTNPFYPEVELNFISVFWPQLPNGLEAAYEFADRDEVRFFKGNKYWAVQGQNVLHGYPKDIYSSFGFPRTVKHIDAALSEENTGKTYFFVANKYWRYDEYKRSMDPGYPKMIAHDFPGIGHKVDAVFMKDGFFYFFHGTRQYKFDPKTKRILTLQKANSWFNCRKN
Description: as §1, §2, §3

[1] = target: TNF-α converting enzyme (TACE) (Homo sapiens, UniProt P78536); experiment: Test procedure for measuring TACE inhibition (fluorescent peptidyl substrate)
Description: Using 96-well black microtiter plates, each well receives a solution composed of 10 μL TACE (final concentration 1 μg/mL), 70 μL Tris buffer, pH 7.4 containing 10% glycerol (final concentration 10 mM), and 10 μL of test compound solution in DMSO (final concentration 1 μM, DMSO concentration <1%) and incubated for 10 minutes at room temperature. The reaction is initiated by addition of a fluorescent peptidyl substrate (final concentration 100 μM to each well and then shaking on a shaker for 5 sec.
The reaction is read (excitation 340 nm, emission 420 nm) for 10 min. and the increase in fluorescence over time is plotted as a linear line. The slope of the line is calculated and represents the reaction rate.
The mean (x±sem) of the control rate is calculated and compared for statistical significance (p<0.05) with drug-treated rates using Dunnett's multiple comparison test.

Chain of MMP-9 (P14780 94-707): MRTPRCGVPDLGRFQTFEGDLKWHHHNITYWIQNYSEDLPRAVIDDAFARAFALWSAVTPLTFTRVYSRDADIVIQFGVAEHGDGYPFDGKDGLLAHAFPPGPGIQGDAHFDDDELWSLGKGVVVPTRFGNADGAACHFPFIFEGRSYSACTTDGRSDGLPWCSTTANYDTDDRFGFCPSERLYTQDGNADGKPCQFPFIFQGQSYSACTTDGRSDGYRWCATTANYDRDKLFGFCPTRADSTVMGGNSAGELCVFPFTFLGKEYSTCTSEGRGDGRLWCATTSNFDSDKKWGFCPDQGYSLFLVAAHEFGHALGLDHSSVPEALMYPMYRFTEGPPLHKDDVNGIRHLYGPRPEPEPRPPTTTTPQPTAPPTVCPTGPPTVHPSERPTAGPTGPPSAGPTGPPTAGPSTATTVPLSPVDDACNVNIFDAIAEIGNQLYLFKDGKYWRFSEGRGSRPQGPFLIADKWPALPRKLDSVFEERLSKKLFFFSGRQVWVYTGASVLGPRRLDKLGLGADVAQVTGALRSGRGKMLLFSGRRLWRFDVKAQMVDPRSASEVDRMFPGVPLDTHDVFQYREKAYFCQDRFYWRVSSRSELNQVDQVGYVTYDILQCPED
Chain of TNF-α converting enzyme (TACE) (P78536 215-824): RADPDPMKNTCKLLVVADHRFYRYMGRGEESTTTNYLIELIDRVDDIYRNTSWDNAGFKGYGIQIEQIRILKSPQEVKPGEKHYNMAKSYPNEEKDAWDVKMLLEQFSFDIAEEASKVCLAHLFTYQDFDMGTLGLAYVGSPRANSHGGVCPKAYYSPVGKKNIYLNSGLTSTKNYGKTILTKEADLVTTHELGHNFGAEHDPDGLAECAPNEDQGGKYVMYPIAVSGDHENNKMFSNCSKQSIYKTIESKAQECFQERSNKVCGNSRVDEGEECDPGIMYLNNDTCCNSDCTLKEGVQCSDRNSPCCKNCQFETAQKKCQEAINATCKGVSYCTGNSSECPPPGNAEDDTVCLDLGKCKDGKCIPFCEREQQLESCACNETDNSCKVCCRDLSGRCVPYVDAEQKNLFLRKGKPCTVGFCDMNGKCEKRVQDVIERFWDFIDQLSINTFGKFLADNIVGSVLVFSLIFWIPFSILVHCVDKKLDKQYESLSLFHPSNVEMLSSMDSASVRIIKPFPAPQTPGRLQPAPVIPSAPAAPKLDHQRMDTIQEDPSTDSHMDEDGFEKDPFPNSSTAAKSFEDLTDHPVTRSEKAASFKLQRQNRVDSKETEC

Row | IC50 (MMP-9) [nM] | IC50 (MMP-1) [nM] | IC50 [1] [nM] | inhibition at 1 µM [1] [%] | IC50 (MMP-1; cells that print nM) [nM] | SMILES
1 | 280 | 9000 | 55 |  |  | CC#CCOc1ccc(S(=O)(=O)C2(C(=O)NO)CCN(Cc3ccc(Cl)cc3)CC2)cc1 [Example 3, 4-(4-But-2-ynyloxy-benzenesulfonyl)-1-(4-chloro-benzyl)-piperdine-4-carboxylic acid hydroxyamide]
2 | 400 | 300 | 188 |  |  | CCC#CCOc1ccc(S(=O)(=O)C2(C(=O)NO)CCN(Cc3ccc(Br)cc3)CC2)cc1 [Example 5, 1-(4-Bromo-benzyl)-4-(4-pent-2-ynyloxy-benzenesulfonyl)-piperdine-4-carboxylic acid hydroxyamide]
3 | 225 | 2500 | 123 |  |  | CC#CCOc1ccc(S(=O)(=O)C2(C(=O)NO)CCN(Cc3ccc(F)cc3)CC2)cc1 [Example 7, 4-(4-But-2-ynyloxy-benzenesulfonyl)-1-(4-fluoro-benzyl)-piperidine-4-carboxylic acid hydroxyamide]
4 | 218 | 4700 | 195 |  |  | CC#CCOc1ccc(S(=O)(=O)C2(C(=O)NO)CCN(Cc3ccc(C#N)cc3)CC2)cc1 [Example 8, 4-(4-But-2-ynyloxy-benzenesulfonyl)-1-(4-cyano-benzyl)-piperidine-4-carboxylic acid hydroxyamide]
5 | 96.2 | 2100 | 166 |  |  | CC#CCOc1ccc(S(=O)(=O)C2(C(=O)NO)CCN(Cc3ccc(C)cc3)CC2)cc1 [Example 9, 4-(4-But-2-ynyloxy-benzenesulfonyl)-1-(4-methyl-benzyl)-piperidine-4-carboxylic acid hydroxamide]
6 | 5.8 | 143 | 98 |  |  | C#CCOc1ccc(S(=O)(=O)C2(C(=O)NO)CCN(Cc3ccc(Br)cc3)CC2)cc1 [Example 11, 1-(4-Bromo-benzyl)-4-(4-prop-2-ynyloxy-benzenesulfonyl)-piperdine-4-carboxylic acid hydroxyamide]
7 | 1000 | 15000 |  | 41.8 |  | O=C(NO)C1(S(=O)(=O)c2ccc(OCC#CCN3CCCCC3)cc2)CCN(Cc2ccc(Br)cc2)CC1 [Example 12, 1-(4-bromo-benzyl)-4-[4-(4-piperidin-1-yl-but-2-ynyloxy)-benzenesulfonyl]-piperidine-4-carboxylic acid hydroxyamide]
8 | 568 |  | 30.1 |  | 2640 | CC#CCOc1ccc(S(=O)(=O)C2(C(=O)NO)CCOCC2)cc1 [Example 20, 4-{[4-(2-butynyloxy)phenyl]sulfonyl}-N-hydroxytetrahydro-2H-pyran-4-carboxamide]
9 | 3500 | > 10000 | 509 |  |  | CC#CCOc1cccc(S(=O)(=O)C2(C(=O)NO)CCN(Cc3ccccc3)CC2)c1 [Example 21, 1-benzyl-4-{[3-(2-butynyloxy)phenyl]sulfonyl}-N-hydroxy-4-piperdine carboxamide]
10 | 1810 | > 10000 |  | 48.4 |  | CC#CCOc1ccc(S(=O)(=O)C2(C(=O)NO)CCN(C(C)C)CC2)cc1 [Example 22, 4-{[4-(2-butynyloxy)phenyl]sulfonyl}-N-hydroxy-1-isopropyl-4-piperidine carboxamide]
11 | 160 |  | 86.2 |  | 3210 | CC#CCOc1ccc(S(=O)(=O)C2(C(=O)NO)CCN(Cc3cccnc3)CC2)cc1 [Example 23, 4-{[4-(2-butynyloxy)phenyl]sulfonyl}-N-hydroxy-1-(3-pyridinylmethyl)-4-piperidine carboxamide]
12 | 2080 |  | 180 |  | 5670 | CC#CCOc1ccc(S(=O)(=O)C2(C(=O)NO)CCCN(CC)C2)cc1 (stereo not drawn) [Example 24, 3-{[4-(2-Butynyloxy)phenyl]sulfonyl}-1-ethyl-N-hydroxy-3-piperidinecarboxamide]
13 | 2740 | > 10000 | 695 |  |  | CC#CCOc1ccc(S(=O)(=O)C2(C(=O)NO)CCCN(Cc3ccc(Cl)cc3)C2)cc1 (stereo not drawn) [Example 25, 3-{[4-(2-butynyloxy)phenyl]sulfonyl}-1-(4-chlorobenzyl)-N-hydroxy-3-piperidinecarboxamide]
14 | 25.1 |  | 136 |  | 1990 | CC#CCOc1ccc(S(=O)(=O)C2(C(=O)NO)CCN(Cc3ccc(OCCN4CCCCC4)cc3)CC2)cc1 [Example 26, 4-{[4-(2-Butynyloxy)phenyl]sulfonyl}-1-[4-(2-piperidin-1-yl-ethoxy)-benzyl]-piperidine-4-carboxylic acid hydroxyamide]
15 | 1540 | > 10000 | 168 |  |  | CC#CCOc1ccc(S(=O)(=O)C2(C(=O)NO)CCN(C(CC)CC)CC2)cc1 [Example 27, 4-{[4-(2-Butynyloxy)phenyl]sulfonyl}-1-(3-pentanyl)-piperidine-4-carboxylic acid hydroxyamide]
16 | 15.4 |  | 150 |  | 106 | C#CCOc1ccc(S(=O)(=O)C2(C(=O)NO)CCN(Cc3ccc(OC)cc3)CC2)cc1 [Example 28, 1-(4-Methoxy-benzyl)-4-(4-prop-2-ynyloxy-benzenesulfonyl)-piperidine-4-carboxylic acid hydroxyamide]
17 | 16 |  | 127 |  | 91 | C#CCOc1ccc(S(=O)(=O)C2(C(=O)NO)CCN(Cc3ccc(Cl)cc3)CC2)cc1 [Example 29, 1-(4-Chlorobenzyl)-4-(4-prop-2-ynyloxy-benzenesulfonyl)-piperidine-4-carboxylic acid hydroxyamide]
18 | 5900 | > 10000 | 102 |  |  | CC#CCOc1ccc(SCC2(C(=O)NO)CCN(C(=O)OC(C)(C)C)CC2)cc1 [Example 30, tert-butyl-4-({[4-(2-butynyloxy)phenyl]sulfanyl}methyl)-4-[(hydroxyamino)-carbonyl]-1-piperidinecarboxylate]
19 | > 10000 | > 10000 | 314 |  |  | CC#CCOc1ccc(SCC2(C(=O)NO)CCNCC2)cc1 [Example 31, 4-({[4-(But-2-ynyloxy)phenyl]thio}methyl)-N-hydroxypiperidine-4-carboxamide]

Row | SMILES | IC50 (MMP-9) [nM] | IC50 (MMP-1) [nM] | IC50 [1] [nM] | inhibition at 1 µM [1] [%] | IC50 (MMP-1; cells that print nM) [nM]
20 | CC#CCOc1ccc(S(=O)(=O)C2(C(=O)NO)CCN(Cc3ccc(Br)cc3)CC2)cc1 [Example 1, 1-(4-Bromo-benzyl)-4-(4-but-2-ynyxoy-benzenesulfonyl)-piperdine-4-carboxylic acid hydroxyamide] | 385 | 3300 | 65 |  | 
21 | CC#CCOc1ccc(S(=O)(=O)C2(C(=O)NO)CCN(Cc3ccc(OC)cc3)CC2)cc1 [Example 2, 4-(4-But-2-ynyloxy-benzenesulfonyl)-1-(4-methoxy-benzyl)-piperdine-4-carboxylic acid hydroxyamide] | 164 | 2570 | 82 |  | 
22 | CC#CCOc1ccc(S(=O)(=O)C2(C(=O)NO)CCN(Cc3ccccc3)CC2)cc1 [Example 4, 1-Benzyl-4-(4-but-2-ynyloxy-benzenesulfonyl)-piperdine-4-carboxylic acid hydroxyamide] | 148 | 2600 | 90 |  | 
